# Measured values: ChEMBL document CHEMBL5108004, “An auristatin-based peptide-drug conjugate targeting Kita-Kyushu lung cancer antigen 1 for precision chemoradiotherapy in gastric cancer” (Eur J Med Chem, 2022)
# The source made the active and inactive calls. The rule behind the calls is not given here. *1 amine or outer side, *2 acyl side, *3 side chain or, on linkers, in order; H or OH if unused. Where a SMILES comes first, the peptide text is derived from it. Bridges are numbered along the chain shown (N, C = ends). Roman numbers before positions name the chains, in order. [ ]: non-standard residue; d: D form. The star is where a group is joined. Hexanoyl(6-succinimido-3yl) = O=C1CC([*:1])C(=O)N1CCCCCC(=O)[*:2]; Dolaproine = CO[C@@H]([C@@H]1CCCN1)[C@@H](C)C(=O)O; Dil = CC[C@H](C)[C@H](NC)[C@@H](CC(=O)O)OC; PABC = O=C(OCc1ccc(N[*:1])cc1)[*:2]; X1 = C[C@@H](N*)[C@@H](O)c1ccccc1; Cit = NC(=O)NCCC[C@H](N)C(=O)O; NMeV = CN[C@H](C(=O)O)C(C)C
# Experiments:
# [1] = target: T1, Kita-kyushu lung cancer antigen 1 (Homo sapiens) (UniProt Q5H943); assay: Binding affinity to recombinant KK-LC-1 (unknown origin) using FITC-labeled compound at 0.1 to 1000 uM incubated for 2 hrs and measured by FLISA assay; settings: dose 0.1-1000 µM
# T1 sequence (whole entry): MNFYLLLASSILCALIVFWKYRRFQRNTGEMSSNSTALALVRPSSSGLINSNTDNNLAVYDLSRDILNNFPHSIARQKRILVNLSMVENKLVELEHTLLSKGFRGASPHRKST
# [2] = target: T1, Kita-kyushu lung cancer antigen 1 (Homo sapiens); assay: Binding affinity to KK-LC-1 in KK-LC-1-positive human NUGC-4 cells using FITC-labeled compound at 1 to 1000 uM incubated for 30 mins and measured by flow cytometry assay; format: cell-based; settings: dose 1-1000 µM
# [3] = target: T1, Kita-kyushu lung cancer antigen 1 (Homo sapiens); assay: Binding affinity to KK-LC-1 in KK-LC-1-positive human MKN-45 cells using FITC-labeled compound at 1 to 1000 uM incubated for 30 mins and measured by flow cytometry assay; format: cell-based; settings: dose 1-1000 µM
# [4] = Drug uptake in KK-LC-1-positive human NUGC-4 cells using FITC-labeled compound at 100 uM incubated for 10 to 70 mins and assessed as drug internalization measured by DAPI staining method; format: ADME, cell-based; settings: nugc-4, 100 µM, time 10-70 min
# NUGC-4 [5] = assay: Cytotoxicity against KK-LC-1-positive human NUGC-4 cells incubated for 72 hrs by CCK-8 assay; format: functional, cell-based; settings: NUGC-4, 72 h
# MKN-45 [6] = assay: Cytotoxicity against KK-LC-1-positive human MKN-45 cells incubated for 72 hrs by CCK-8 assay; format: functional, cell-based; settings: MKN-45, 72 h
# HGC-27 = assay: Cytotoxicity against KK-LC-1-negative human HGC-27 cells incubated for 72 hrs by CCK-8 assay; format: functional, cell-based; settings: HGC-27, 72 h
# [7] = Ratio IC50 for cytotoxicity against KK-LC-1-negative human HGC-27 cells to IC50 for cytotoxicity against KK-LC-1-positive human NUGC-4 cells
# [8] = Ratio IC50 for cytotoxicity against KK-LC-1-negative human HGC-27 cells to IC50 for cytotoxicity against KK-LC-1-positive human MKN-45 cells
# NUGC-4 [9] = assay: Cell cycle arrest in KK-LC-1-positive human NUGC-4 cells assessed as accumulation at G2/M phase at 20 nM measured after 24 hrs by propidium iodide staining based flow cytometric analysis (reference value: 21.5 +/- 0.7 %); format: functional
# NUGC-4 [10] = assay: Cell cycle arrest in KK-LC-1-positive human NUGC-4 cells assessed as accumulation at G2/M phase at 40 nM measured after 24 hrs by propidium iodide staining based flow cytometric analysis (reference value: 21.5 +/- 0.7 %); format: functional
# NUGC-4 [11] = assay: Cell cycle arrest in KK-LC-1-positive human NUGC-4 cells assessed as accumulation at G2/M phase at 100 nM measured after 24 hrs by propidium iodide staining based flow cytometric analysis (reference value: 21.5 +/- 0.7 %); format: functional
# MKN-45 [12] = assay: Cell cycle arrest in KK-LC-1-positive human MKN-45 cells assessed as increase accumulation at G2/M phase at 20 to 100 nM measured after 24 hrs by propidium iodide staining based flow cytometric analysis; format: functional; settings: dose 20-100 nM, DDE = dose-dependent effect
# NUGC-4 [13] = assay: Cell cycle arrest in KK-LC-1-positive human NUGC-4 cells assessed as increase accumulation at G2/M phase at 100 nM measured after 0 to 48 hrs by propidium iodide staining based flow cytometric analysis; format: functional; settings: time 0-48 hrs, TDE = time-dependent effect
# MKN-45 [14] = assay: Cell cycle arrest in KK-LC-1-positive human MKN-45 cells assessed as increase accumulation at G2/M phase at 100 nM measured after 0 to 48 hrs by propidium iodide staining based flow cytometric analysis; format: functional; settings: time 0-48 hrs, TDE = time-dependent effect
# NUGC-4 [15] = assay: Inhibition of colony formation in KK-LC-1-positive human NUGC-4 cells assessed as decrease in colonies incubated for 24 hrs followed by exposure to 2 Gy gamma irradiation by crystal violet staining based clonogenic assay; format: functional, cell-based
# MKN-45 [16] = assay: Inhibition of colony formation in KK-LC-1-positive human MKN-45 cells assessed as decrease in colonies incubated for 24 hrs followed by exposure to 2 Gy gamma irradiation by crystal violet staining based clonogenic assay; format: functional, cell-based
# NUGC-4 [17] = assay: Induction of apoptosis in KK-LC-1-positive human NUGC-4 cells at 100 nM incubated for 24 hrs followed by exposure to 2 Gy gamma irradiation by AnnexinV/PI-staining based flow cytometry; format: functional, cell-based
# MKN-45 [18] = assay: Induction of apoptosis in KK-LC-1-positive human MKN-45 cells at 100 nM incubated for 24 hrs followed by exposure to 2 Gy gamma irradiation by AnnexinV/PI-staining based flow cytometry; format: functional, cell-based
# MKN-45 [19] = assay: Induction of DNA damage in KK-LC-1-positive human MKN-45 cells assessed as double strand breaks by measuring increase in gamma-H2AX foci formation at 100 nM incubated for 24 hrs followed by exposure to 2 Gy gamma irradiation by immunofluorescence staining method; format: functional, cell-based
# [20] = Stability in human plasma assessed as compound remaining at 500 uM measured after 8 hrs by HPLC analysis; format: ADME, cell-free; settings: read-out: Stability
# [21] = Stability in human plasma assessed as compound remaining at 500 uM measured after 48 hrs by HPLC analysis; format: ADME, cell-free; settings: read-out: Stability
# [22] = Stability in PBS at 37 degreeC measured after 48 hrs by HPLC analysis; format: physicochemical; settings: buffer
# [23] = Biodistribution in tumor of nude mouse xenografted with KK-LC-1-positive human NUGC-4 cells using Cy5-labeled compound at 10 nmol, iv and measured after 24 hrs by near-infrared imaging method; format: ADME, organism-based, Neoplasm; settings: in vivo
# NUGC-4 [24] = assay: Induction of mitotic arrest in KK-LC-1-positive human NUGC-4 cells xenografted in nude mouse assessed as number of pHH3-positive nuclei in tumor at 4 nmol, iv administered as single dose and measured after 24 hrs by pHH3 immunohistochemical staining method relative to control; format: functional
structure (smiles),measurement,setting,value
CC[C@H](C)[C@@H]([C@@H](CC(=O)N1CCC[C@H]1[C@H](OC)[C@@H](C)C(=O)N[C@H](C)[C@@H](O)c1ccccc1)OC)N(C)C(=O)[C@@H](NC(=O)[C@@H](NC(=O)[C@H](C(C)C)N(C)C(=O)OCc1ccc(NC(=O)[C@H](CCCNC(N)=O)NC(=O)[C@@H](NC(=O)CCCCCN2C(=O)CC(SC[C@H](N)C(=O)N[C@H]3CSSC[C@@H](C(=O)O)NC(=O)[C@H]([C@@H](C)O)NC(=O)[C@H]([C@@H](C)O)NC(=O)[C@H](CC(C)C)NC(=O)[C@H](C)NC(=O)[C@H]([C@@H](C)O)NC(=O)[C@H](CC(N)=O)NC(=O)[C@H](CCCCN)NC3=O)C2=O)C(C)C)cc1)C(C)C)C(C)C (stereo not given in full) (I: H-CCKNTALTTC-OH / II: V[Cit][PABC][NMeV]VV[Dil][Dolaproine]-X1; linker I:1-II:N via Hexanoyl(6-succinimido-3yl); disulfide I:2-I:10),Activity,[1],Active
same,Activity,[2],Active
same,Activity,[3],Active
same,Drug uptake,[4],Active
same,IC50,NUGC-4 [5],3.87 nM
same,IC50,MKN-45 [6],5.26 nM
same,IC50,HGC-27,786 nM
same,Ratio IC50,[7],100
same,Ratio IC50,[8],100
same,Activity,NUGC-4 [9],30.9%
same,Activity,NUGC-4 [10],49.53%
same,Activity,NUGC-4 [11],67.4%
same,Activity,MKN-45 [12],Dde
same,Activity,NUGC-4 [13],Tde
same,Activity,MKN-45 [14],Tde
same,inhibition,NUGC-4 [15],Active
same,inhibition,MKN-45 [16],Active
same,Activity,NUGC-4 [17],Active
same,Activity,MKN-45 [18],Active
same,Activity,MKN-45 [19],Active
same,"remaining at 8 h, 500 µM",[20],42.5%
same,"remaining at 48 h, 500 µM",[21],13.2%
same,Stability,[22],Stable
same,Drug uptake,[23],Active
same,Activity,NUGC-4 [24],87
